Results taken from patent US7138361B2, “Herbicidal heterocycles” (E. I. du Pont de Nemours and Company, priority 2000, dated 2006).

Columns and labels:
Assay type in all cases: in vivo
Nightshade = assay: Test C preemergence; conditions: visual evaluation after 12 to 14 days
rice (Oryza saliva) = assay: Test C flooded paddy test; conditions: for Rice plant response rating: Flooded Paddy, scale 0 to 100, 0 no effect, 100 complete control; for Plant response rating, Rice: flooded paddy test, scale 0 to 100 (0 no effect, 100 complete control)
Outline: (§1)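 Visual injury score, 0 (no effect) to 100 (complete control), relative to controls. Paddy plants treated at 2-leaf stage; greenhouse hold 12–14 d before rating.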

[1] = system: barnyardgrass (Echinochloa crus-galli); assay: Test C flooded paddy test; conditions: for Barnyardgrass plant response rating: Flooded Paddy, scale 0 to 100, 0 no effect, 100 complete control; for Plant response rating, Barnyardgrass: flooded paddy test, scale 0 to 100 (0 no effect, 100 complete control)
Outline: as §1

[2] = system: smallflower flatsedge (Cyperus difformis); assay: Test C flooded paddy test; conditions: for Flatsedge plant response rating: Flooded Paddy, scale 0 to 100, 0 no effect, 100 complete control; for Plant response rating, Flatsedge: flooded paddy test, scale 0 to 100 (0 no effect, 100 complete control)
Outline: as §1

[3] = system: duck salad (Heteranthera limosa); assay: Test C flooded paddy test; conditions: for Ducksalad plant response rating: Flooded Paddy, scale 0 to 100, 0 no effect, 100 complete control; for Plant response rating, Ducksalad: flooded paddy test, scale 0 to 100 (0 no effect, 100 complete control)
Outline: as §1

Sunflower = assay: Test C preemergence; conditions: scale 0 to 100, 0 no effect, 100 complete control
corn (Zea mays) = assay: Test C postemergence
Source text: (§2) Seeds of plant species selected from bermudagrass (Cynodon dactylon), Surinam grass (Brachiaria decumbens), cocklebur (Xanthium strumarium), corn (Zea mays), crabgrass (Digitaria sanguinalis), woolly cupgrass (Eriochloa villosa), giant foxtail (Setaria faberii), goosegrass (Eleusine indica), johnsongrass (Sorghum halepense), kochia (Kochia scoparia), lambsquarters (Chenopodium album), morningglory (Ipomoea hederacea), yellow nutsedge (Cyperus esculentus), pigweed (Amaranthus retroflexus), common ragweed (Ambrosia elatior), soybean (Glycine max) and velvetleaf (Abutilon theophrasti) were planted and treated preemergence with test chemicals formulated in a non-phytotoxic solvent mixture which included a surfactant.
(§3) At the same time, plants selected from these crop and weed species and also winter barley (Hordeum vulgare), blackgrass (Alopecurus myosuroides), canary grass (Phalaris minor), chickweed (Stellaria media), downy brome (Bromus tectorum), green foxtail (Setaria viridis), Italian ryegrass (Lolium multiflorum), wheat (Triticum aestivum), wild oat (Avena fatua) and windgrass (Apera spica-venti) were treated with postemergence applications of some of the test chemicals formulated in the same manner. Plants ranged in height from 2 to 18 cm (1- to 4-leaf stage) for postemergence treatments. Plant species in the flooded paddy test consisted of rice (Oryza saliva), smallflower flatsedge (Cyperus difformis), duck salad (Heteranthera limosa) and barnyardgrass (Echinochloa crus-galli) grown to the 2-leaf stage for testing. Treated plants and controls were maintained in a greenhouse for 12 to 14 days, after which time all species were compared to controls and visually evaluated. Plant response ratings, summarized in Table C, are based on a scale of 0 to 100 where 0 is no effect and 100 is complete control. A dash (-) response means no test result.

[4] = system: crabgrass (Digitaria sanguinalis); assay: Test C postemergence
Source text: as §2, §3

[5] = system: cocklebur (Xanthium strumarium); assay: Test C postemergence
Source text: as §2, §3

[6] = Rate 125 g/ha, scale 0 to 100, 0 no effect, 100 complete control
[7] = Rate 250 g/ha, scale 0 to 100 (0 no effect, 100 complete control)
[8] = Rate 500 g/ha, scale 0 to 100 (0 no effect, 100 complete control)

Structure (SMILES)	Plant response rating (0 to 100), Nightshade (Nightshade; Rate 250 g/ha)	Rice plant response rating (rice (Oryza saliva); Rate 250 g/ha)	Rice plant response rating (rice (Oryza saliva); Rate 500 g/ha)	Plant response rating, Rice (rice (Oryza saliva); Rate 62 g/ha)	Plant response rating, Rice (rice (Oryza saliva); Rate 125 g/ha)	Barnyardgrass plant response rating ([1]; Rate 250 g/ha)	Barnyardgrass plant response rating ([1]; Rate 500 g/ha)	Plant response rating, Barnyardgrass ([1]; Rate 62 g/ha)	Plant response rating, Barnyardgrass ([1]; Rate 125 g/ha)	Flatsedge plant response rating ([2]; Rate 250 g/ha)	Flatsedge plant response rating ([2]; Rate 500 g/ha)	Plant response rating, Flatsedge ([2]; Rate 62 g/ha)	Plant response rating, Flatsedge ([2]; Rate 125 g/ha)	Ducksalad plant response rating ([3]; Rate 250 g/ha)	Ducksalad plant response rating ([3]; Rate 500 g/ha)	Plant response rating, Ducksalad ([3]; Rate 62 g/ha)	Plant response rating, Ducksalad ([3]; Rate 125 g/ha)	Plant response rating, Sunflower (Sunflower; Rate 125 g/ha)	Plant response rating (0 to 100), Nightshade (Nightshade; Rate 500 g/ha)	other results
O=C1C(n2ccc(C3CCC3)n2)SCN1c1cccc(OC(F)F)c1 (stereo not shown) [Compound 45]	0	70	100	0	50	100	100	70	100	100	100	90	100	100	100	50	80	20		
CC1(c2ccn(C3OCN(c4cccc(OC(F)(F)F)c4)C3=O)n2)CC1 (stereo not shown) [Compound 69]		40	80	0	20	100	100	30	30	100	100	100	100	0	20	0	0			
CC1(c2ccn(C3SCN(c4cccc(C(F)(F)F)c4)C3=O)n2)CC1 (stereo not shown) [Compound 64]		80	90	0	20	80	100	20	80	100	100	100	100	90	90	0	30	20	90	Plant response rating, Sunflower (Sunflower; Rate 250 g/ha): 50
CCC(CC)c1ccn(C2OCN(c3cccc(OC(F)(F)F)c3)C2=O)n1 (stereo not shown) [Compound 68]		30	100	20	30	100	100	90	100	100	100	100	100	100	100	100	100			Plant response rating, Corn (corn (Zea mays); Rate 62 g/ha, scale 0 to 100): 0; Plant response rating, Corn (corn (Zea mays); [6]): 0; Plant response rating, Corn (corn (Zea mays); [7]): 0; Plant response rating, Corn (corn (Zea mays); [8]): 0; Plant response rating, Crabgrass ([4]; Rate 62 g/ha, scale 0 to 100): 0; Plant response rating, Crabgrass [4, 6]: 0; Plant response rating, Crabgrass [4, 7]: 0; Plant response rating, Crabgrass [4, 8]: 60; Plant response rating, Cocklebur ([5]; Rate 62 g/ha, scale 0 to 100): 0; Plant response rating, Cocklebur [5, 6]: 0; Plant response rating, Cocklebur [5, 7]: 0; Plant response rating, Cocklebur [5, 8]: 50
Cc1ccc(N2CCC(n3ccc(C(C)(C)C)n3)C2=O)cc1OC(F)F (stereo not shown) [Compound 79]		20	50	0	20	90	90	30	40	90	90	90	90	90	90	0	30		90	Plant response rating, Sunflower (Sunflower; Rate 250 g/ha): 50
O=C1C(n2ccc(C3CCC3)n2)OCN1c1cccc(C(F)(F)F)c1 (stereo not shown) [Compound 39]	0	0	70	0	0	100	100	80	80	100	100	90	100	70	100	20	60	0		
CC1(c2ccn(C3OCN(c4cccc(C(F)(F)F)c4)C3=O)n2)CC1 (stereo not shown) [Compound 62]	0	50	50	0	0	20	80	0	20	90	100	0	90	0	0	0	0	0	0	
